# Data published in ChEMBL document CHEMBL1154267, “Imidazo[1,5-a][1,2,4]-triazolo[1,5-d][1,4]benzodiazepines as potent and highly selective GABAA alpha5 inverse agonists with potential for the treatment of cognitive dysfunction” (Bioorg Med Chem Lett, 2009).
# Calls of active or inactive are those of the source. The calls are words filed in the database; no cut-off is given here.
# How the values were obtained:
# [1] = target: T1, GABA-A receptor; alpha-5/beta-3/gamma-2 (Homo sapiens, UniProt P18507+P28472+P31644); assay: Displacement of [3H]flumazenil from GABAA alpha-5-beta-3-gamma-2 receptor; assay type: protein-complex assay
# T1 sequence (P18507 whole entry): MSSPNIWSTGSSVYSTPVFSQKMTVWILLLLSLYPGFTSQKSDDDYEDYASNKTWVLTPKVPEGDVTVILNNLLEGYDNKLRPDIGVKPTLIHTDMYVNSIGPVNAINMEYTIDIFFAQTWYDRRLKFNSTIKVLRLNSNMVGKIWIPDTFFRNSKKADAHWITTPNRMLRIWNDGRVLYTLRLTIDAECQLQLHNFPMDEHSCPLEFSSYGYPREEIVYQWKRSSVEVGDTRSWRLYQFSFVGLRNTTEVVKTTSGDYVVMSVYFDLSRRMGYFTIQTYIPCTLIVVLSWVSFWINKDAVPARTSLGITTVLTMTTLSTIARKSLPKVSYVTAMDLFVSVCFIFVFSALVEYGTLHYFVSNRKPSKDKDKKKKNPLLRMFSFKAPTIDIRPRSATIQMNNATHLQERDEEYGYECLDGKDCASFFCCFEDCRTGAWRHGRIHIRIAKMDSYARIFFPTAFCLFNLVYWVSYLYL
# T1 sequence (P28472 whole entry): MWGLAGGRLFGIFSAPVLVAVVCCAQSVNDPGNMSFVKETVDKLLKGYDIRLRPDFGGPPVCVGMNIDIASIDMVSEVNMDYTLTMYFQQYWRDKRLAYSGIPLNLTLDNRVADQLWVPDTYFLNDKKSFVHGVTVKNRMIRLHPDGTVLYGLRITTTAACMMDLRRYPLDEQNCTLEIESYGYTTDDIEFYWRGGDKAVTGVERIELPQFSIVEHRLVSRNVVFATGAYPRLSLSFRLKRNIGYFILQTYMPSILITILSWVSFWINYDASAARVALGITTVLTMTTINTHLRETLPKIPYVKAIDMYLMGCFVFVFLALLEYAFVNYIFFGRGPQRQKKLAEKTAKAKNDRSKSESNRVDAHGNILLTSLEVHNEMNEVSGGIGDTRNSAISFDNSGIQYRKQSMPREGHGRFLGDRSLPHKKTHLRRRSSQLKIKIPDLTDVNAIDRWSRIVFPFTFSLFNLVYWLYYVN
# T1 sequence (P31644 whole entry): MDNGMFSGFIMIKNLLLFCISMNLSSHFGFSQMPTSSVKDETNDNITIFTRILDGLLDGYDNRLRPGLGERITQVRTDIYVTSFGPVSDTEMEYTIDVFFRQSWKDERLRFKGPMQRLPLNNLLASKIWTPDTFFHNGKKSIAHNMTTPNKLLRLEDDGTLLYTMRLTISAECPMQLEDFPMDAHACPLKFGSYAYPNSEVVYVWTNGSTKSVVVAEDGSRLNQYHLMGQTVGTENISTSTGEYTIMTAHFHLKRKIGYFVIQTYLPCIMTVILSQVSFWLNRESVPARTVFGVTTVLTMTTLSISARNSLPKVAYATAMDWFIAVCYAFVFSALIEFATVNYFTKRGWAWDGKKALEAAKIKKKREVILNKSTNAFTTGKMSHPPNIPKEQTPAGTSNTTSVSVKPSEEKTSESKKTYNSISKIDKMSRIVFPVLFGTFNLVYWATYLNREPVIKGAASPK
# [2] = target: GABA-A receptor; alpha-5/beta-3/gamma-2 (Homo sapiens) (UniProt P18507+P28472+P31644); assay: Inverse agonist activity at GABAA alpha-5-beta-3-gamma-2 receptor assessed as modulation of GABA-induced chloride ion flux by electrophysiology assay relative to GABA; assay type: functional
# [3] = Selectivity ratio of Ki for GABAA alpha-1-beta-3-gamma-2 receptor to Ki for GABAA alpha-5-beta-3-gamma-2 receptor
# [4] = Selectivity ratio of Ki for GABAA alpha-2-beta-3-gamma-2 receptor to Ki for GABAA alpha-5-beta-3-gamma-2 receptor
# [5] = Selectivity ratio of Ki for GABAA alpha-3-beta-3-gamma-2 receptor to Ki for GABAA alpha-5-beta-3-gamma-2 receptor
# [6] = target: T2, GABA-A receptor; alpha-1/beta-3/gamma-2 (Homo sapiens, UniProt P14867+P18507+P28472); assay: Displacement of [3H]flumazenil from GABAA alpha-1-beta-3-gamma-2 receptor; assay type: protein-complex assay
# T2 sequence (P14867 whole entry): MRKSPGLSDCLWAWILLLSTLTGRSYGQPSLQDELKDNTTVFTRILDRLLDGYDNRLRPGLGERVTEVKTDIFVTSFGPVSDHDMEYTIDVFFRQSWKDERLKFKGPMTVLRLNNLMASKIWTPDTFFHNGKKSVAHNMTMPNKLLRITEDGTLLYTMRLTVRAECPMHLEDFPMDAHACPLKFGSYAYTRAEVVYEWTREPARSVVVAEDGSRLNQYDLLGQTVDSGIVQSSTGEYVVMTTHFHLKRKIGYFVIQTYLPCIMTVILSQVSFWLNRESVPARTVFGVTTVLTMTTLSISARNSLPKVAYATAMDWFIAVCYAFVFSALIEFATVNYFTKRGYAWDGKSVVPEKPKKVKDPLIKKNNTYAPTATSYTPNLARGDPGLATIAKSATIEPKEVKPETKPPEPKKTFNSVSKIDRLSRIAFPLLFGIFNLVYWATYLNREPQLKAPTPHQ
# T2 sequence (P18507 whole entry): T1 sequence (P18507 whole entry)
# T2 sequence (P28472 whole entry): T1 sequence (P28472 whole entry)
# [7] = target: T3, GABA-A receptor; alpha-2/beta-3/gamma-2 (Homo sapiens, UniProt P18507+P28472+P47869); assay: Displacement of [3H]flumazenil from GABAA alpha-2-beta-3-gamma-2 receptor; assay type: protein-complex assay
# T3 sequence (P18507 whole entry): T1 sequence (P18507 whole entry)
# T3 sequence (P28472 whole entry): T1 sequence (P28472 whole entry)
# T3 sequence (P47869 whole entry): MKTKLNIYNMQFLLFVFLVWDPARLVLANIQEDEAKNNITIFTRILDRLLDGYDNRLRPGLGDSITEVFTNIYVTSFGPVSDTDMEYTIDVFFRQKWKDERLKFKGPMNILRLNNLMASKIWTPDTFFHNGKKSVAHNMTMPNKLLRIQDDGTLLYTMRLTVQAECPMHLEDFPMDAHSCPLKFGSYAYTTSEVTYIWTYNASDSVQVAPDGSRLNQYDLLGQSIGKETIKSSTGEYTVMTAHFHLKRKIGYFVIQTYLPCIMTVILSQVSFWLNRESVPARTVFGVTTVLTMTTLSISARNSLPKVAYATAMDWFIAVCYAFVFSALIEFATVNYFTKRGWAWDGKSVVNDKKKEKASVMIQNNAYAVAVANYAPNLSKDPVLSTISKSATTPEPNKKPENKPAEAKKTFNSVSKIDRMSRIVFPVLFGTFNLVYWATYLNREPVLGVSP
# [8] = target: T4, GABA-A receptor; alpha-3/beta-3/gamma-2 (Homo sapiens, UniProt P18507+P28472+P34903); assay: Displacement of [3H]flumazenil from GABAA alpha-3-beta-3-gamma-2 receptor; assay type: protein-complex assay
# T4 sequence (P18507 whole entry): T1 sequence (P18507 whole entry)
# T4 sequence (P28472 whole entry): T1 sequence (P28472 whole entry)
# T4 sequence (P34903 whole entry): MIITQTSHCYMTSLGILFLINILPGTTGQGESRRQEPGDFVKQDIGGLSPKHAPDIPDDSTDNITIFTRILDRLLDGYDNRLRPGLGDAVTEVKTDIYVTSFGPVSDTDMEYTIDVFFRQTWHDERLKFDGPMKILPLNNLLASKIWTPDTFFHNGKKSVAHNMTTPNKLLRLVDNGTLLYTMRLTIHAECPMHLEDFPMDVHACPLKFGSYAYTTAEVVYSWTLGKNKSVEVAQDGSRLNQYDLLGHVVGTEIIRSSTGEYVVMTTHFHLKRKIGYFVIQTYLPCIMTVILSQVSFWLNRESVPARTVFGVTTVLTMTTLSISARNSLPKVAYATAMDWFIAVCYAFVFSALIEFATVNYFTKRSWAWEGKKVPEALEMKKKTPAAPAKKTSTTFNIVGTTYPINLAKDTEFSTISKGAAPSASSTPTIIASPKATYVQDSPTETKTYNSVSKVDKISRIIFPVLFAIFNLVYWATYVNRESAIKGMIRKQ
# [9] = target: GABA-A receptor; alpha-1/beta-3/gamma-2 (Homo sapiens) (UniProt P14867+P18507+P28472); assay: Inverse agonist activity at GABAA alpha-1-beta-3-gamma-2 receptor assessed as modulation of GABA-induced chloride ion flux by electrophysiology assay relative to GABA; assay type: functional
# [10] = target: GABA-A receptor; alpha-2/beta-3/gamma-2 (Homo sapiens) (UniProt P18507+P28472+P47869); assay: Inverse agonist activity at GABAA alpha-2-beta-3-gamma-2 receptor assessed as modulation of GABA-induced chloride ion flux by electrophysiology assay relative to GABA; assay type: functional
# [11] = target: GABA-A receptor; alpha-3/beta-3/gamma-2 (Homo sapiens) (UniProt P18507+P28472+P34903); assay: Inverse agonist activity at GABAA alpha-3-beta-3-gamma-2 receptor assessed as modulation of GABA-induced chloride ion flux by electrophysiology assay relative to GABA; assay type: functional
# [12] = tested on: Rattus norvegicus; assay: Behavioral effect in Lister hooded rat assessed as reversal of Scopolamine-induced impairment of working memory at 1 mg/kg, ip administered 30 mins before Scopolamine challenge by delayed match to position test; assay type: functional, organism-based; parameters: dose 1 mg/kg
# [13] = Solubility of the compound; assay type: physicochemical
# [14] = Lipophilicity, log D at pH 7.4; assay type: physicochemical; settings: buffer
# [15] = Permeability by PAMPA; assay type: ADME; settings: read-out: permeability
# [16] = tested on: Liver microsomes; assay: Clearance in human liver microsomes; assay type: ADME, Microsome
# [17] = Half life in rat; assay type: ADME, organism-based; settings: in vivo
# [18] = Clearance in rat; assay type: ADME, organism-based; settings: in vivo
# [19] = Volume of distribution at steady state in rat; assay type: ADME, organism-based; settings: in vivo, read-out: Vdss
# [20] = Oral bioavailability in rat; assay type: ADME, organism-based; settings: in vivo
# [21] = Ratio of drug level in brain to plasma in rat; assay type: ADME, organism-based; settings: brain and plasma
# [22] = tested on: Rattus norvegicus; assay: Behavioral effect in Lister hooded rat assessed as reversal of Scopolamine-induced impairment of working memory at 1 to 3 mg/kg, ip administered 30 mins before Scopolamine challenge by delayed match to position test; assay type: functional, organism-based
# [23] = tested on: Rattus norvegicus; assay: Behavioral effect in Lister hooded rat assessed as inhibition of scopolamine-induced impairment of working memory at 1 to 3 mg/kg, po after 30 mins by delayed match to position test; assay type: functional, organism-based
SMILES,Ki [1] [nM],Efficacy [2] [%],Ratio Ki [3],Ratio Ki [4],Ratio Ki [5],Ki [6] [nM],Ki [7] [nM],Ki [8] [nM],further results
Cc1ccc2c(c1)-c1nc(Cc3cc(C)no3)nn1Cc1c(C)ncn1-2,0.8,-16,620,332,360,–,–,–,–
COc1ccc2c(c1)-c1nc(Cc3cc(C)no3)nn1Cc1c(C)ncn1-2,2.2,-13,307,193,222,–,–,–,–
Cc1ncn2c1Cn1ncnc1-c1cc(Br)ccc1-2,6,-42,–,–,–,136,186,132,Efficacy [9]: -16%
Cc1ncn2c1Cn1nc(C(C)(C)C)nc1-c1cc(Br)ccc1-2,146,–,–,–,–,3160,1070,1210,–
Cc1cc(-c2nnc3c4ccccc4c(OCc4ccccn4)nn23)no1,1.5,-41,–,–,–,1.5,–,1.5,Efficacy [9]: -9%; Efficacy [10]: 11%; Efficacy [11]: 10%; Activity [12]: Active
Cc1cc(Cc2nc3n(n2)Cc2c(C)ncn2-c2ccc(OC(F)(F)F)cc2-3)on1,11,-20,68,83,111,–,–,–,–
Cc1ncn2c1Cn1nc(CN3CCCC3=O)nc1-c1cc(Br)ccc1-2,7,-34,–,–,–,624,669,515,solubility [13]: 550 µg/mL; logD [14]: 1.5; Papp [15]: 1.5 ×10⁻⁶ cm/s; CL [16]: 3000 µL/min/mg; half-life [17]: 48 min; clearance [18]: 30 mL/min/kg; Vd [19]: 1.3 L/kg; bioavailability [20]: 32%; Kp [21]: 0.09; Activity [22]: Dose-dependent effect; Activity [23]: inactive
